{
  "source": "BindingDB's records for doi:10.3109/14756366.2012.681651",
  "about": "(East China University of Science and Technology, 2013)",
  "data": [
    {"biological_target": "Ribosomal protein S6 kinase alpha-3 (Homo sapiens, UniProt P51812)", "sequence (P51812 whole entry)": "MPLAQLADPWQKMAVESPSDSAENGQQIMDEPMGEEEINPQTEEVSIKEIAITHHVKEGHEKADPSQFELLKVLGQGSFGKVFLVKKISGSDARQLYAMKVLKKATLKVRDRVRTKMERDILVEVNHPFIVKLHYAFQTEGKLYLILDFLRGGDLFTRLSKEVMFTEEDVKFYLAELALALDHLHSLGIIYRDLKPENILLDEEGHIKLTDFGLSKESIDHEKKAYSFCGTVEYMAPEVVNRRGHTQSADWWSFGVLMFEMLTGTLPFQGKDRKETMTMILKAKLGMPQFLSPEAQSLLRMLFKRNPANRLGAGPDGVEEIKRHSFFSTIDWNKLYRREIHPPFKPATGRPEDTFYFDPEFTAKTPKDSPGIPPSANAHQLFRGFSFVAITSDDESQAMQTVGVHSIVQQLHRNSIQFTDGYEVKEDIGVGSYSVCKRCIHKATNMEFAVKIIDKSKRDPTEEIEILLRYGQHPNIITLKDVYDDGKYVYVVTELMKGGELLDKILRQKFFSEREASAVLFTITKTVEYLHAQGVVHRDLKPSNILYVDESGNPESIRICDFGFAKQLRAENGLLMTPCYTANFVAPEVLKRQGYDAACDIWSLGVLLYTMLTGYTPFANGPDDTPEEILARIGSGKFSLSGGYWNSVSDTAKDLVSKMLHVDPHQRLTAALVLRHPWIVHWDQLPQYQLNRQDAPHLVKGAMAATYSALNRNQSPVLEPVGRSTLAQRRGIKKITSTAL", "assay": "RSK2 Inhibition Assay", "conditions": "pH 7.4; 25 °C", "protocol": "The inhibition assays against RSK2 in vitro were determined by ADP Quest® (DiscoveRx) in 96-well flat-bottom plates according to the manufacturer's instructions [Lu et al., J. Med. Chem., 54:3564-3574]. The kinase (20 ng millipore) in 40 μL assay buffer (15 mM HEPES, pH 7.4, 20 mM NaCl, 1 mM EGTA, 0.02% Tween 20, 10 mM MgCl2, and 0.1 mg/mL BGG) containing 25 μM S6 peptide (AKRRRLSSLRA, Anaspec) was incubated for 20 min at room temperature with indicated concentrations of the compounds to be tested. Reactions were initiated by adding 10 μL of ATP to a final ATP concentration of 10 μM and terminated after 60 min at room temperature by adding 20 μL ADP Reagent A and 40 μL ADP Reagent B. Ro31-8220 was used as a positive control. Compounds dilutions were prepared from stock in DMSO and diluted with assay buffer for inhibition assay. The fluorescence signal detecting the amount of ADP produced as a result of enzyme activity was recorded on the Synergy™ 2 Multi-Mode Microplate Reader (BioTek) at an excitation wavelength of 530 nm and an emission wavelength of 590 nm at 30 min after the addition of the ADP Reagent B.", "units": {"IC50": "µM"}, "values": [
      {"smiles": "O=C1NC(=S)NC(=O)C1=NNc1ccc(N2CCOCC2)cc1", "note": "[5-(2-(4-Morpholinophenyl)hydrazono-dihydro-2-thioxopyrimidine-4,6(1H,5H)-dione (15)]", "IC50": 9.23},
      {"smiles": "O=C1NC(=S)NC(=O)C1=NNc1ccc(O)cc1", "note": "[5-(2-(4-Hydroxyphenyl)hydrazono)-dihydro-2-thioxopyrimidine-4,6(1H,5H)-dione (14)]", "IC50": 2.19},
      {"smiles": "O=C1NC(=O)C(=NNc2ccc(N3CCOCC3)cc2)C(=O)N1", "note": "[5-(2-(4-Morpholinophenyl)hydrazono)pyrimidine-2,4,6(1H,3H,5H)-trione (13)]", "IC50": 5.11},
      {"smiles": "O=C1NC(=O)C(=NNc2ccc(O)cc2)C(=O)N1", "note": "[5-(2-(4-Hydroxyphenyl)hydrazono)pyrimidine-2,4,6(1H,3H,5H)-trione (9)]", "IC50": 1.95}
    ]}
  ]
}
